Experimental data published in article PMC12248599, “Exploring the Bioavailability of Red Grape Skin Extract Polyphenols: A Caco-2 Cell Model Study” (Foods, 2025).
“And” between values parts separate entries of the source, which are not always exact repeats. Identical values can stand only once. “Also recorded” adds a separate entry of the source. Marks after values point to notes of the source that are not given here.

Tested on: Caco-2 cell monolayer
Assay: Caco-2 monolayer transport (bioavailability) study, AB and BA directions
Assay type: in vitro ADME, Homo sapiens
Details: for detection at the acceptor side of the Caco-2 cell monolayer: AB and BA experiments; for TE (%) transport efficiency: after 180 min
Procedure: A reversed phase C18 column (Luna 5 μm C18(2) 100 Å, LC Column 250 × 4.6 mm, Phenomenex) was used to separate the polyphenols at a flow rate of 0.7 mL/min with an injection volume of 60 µL. The detection was carried out at 520 nm for anthocyanins (M3G, D3G and Pet3G), at 328 nm for CA, at 356 nm for flavonols (Q3G, K3Gal and K3G) and at 280 nm for GA and SA. The mobile phases were (A) acetonitrile 100% and (B) water 0.1% trifluoroacetic acid (v/v). The gradient was programmed as follows: 10% A 0 min, 10–80% A (0–20 min), 80–100% A (20–25 min), 100% A (25–30 min); 10% A (30–35 min) and 10% A (35–40 min). Every polyphenol was quantified using the corresponding reference standard calibration curve. Each of the quantified phenolic compound concentration was expressed as mg/mL
For the transport experiment Caco-2 cells were cultured at a density of 4 × 10^4 cells/cm^2 in Transwell inserts (12 mm i.d., 1.12 cm^2 growth area, 0.4 µm mean pore size polycarbonate membranes, Corning Inc., Milwaukee, WI, USA) placed in 12-well plates. Caco-2 cells were grown in DMEM in an incubator at 37 °C in a humidified atmosphere containing 5% CO2.
Bioavailability studies were performed in triplicate after 21 days of cell growth. Only inserts with stable TEER values higher than ≥300 Ω cm^2 were considered acceptable to perform the bioavailability study. For that purpose, DMEM media was removed, the monolayer was washed with PBS and HBSS was supplied to the cells.
Likewise, the GSE stock solution was diluted in HBSS medium to prepare GSE solutions S1 and S2. GSE solutions S1 and S2 had concentrations of 15 mg/mL and 22 mg/mL, respectively. These concentrations were established considering previous studies with grape pomace extracts that concluded that intestinal concentrations of 1–2% (w/v) show potential bioactivities and are safe to be used as a food ingredient.
The apical side represents the intestinal lumen and the basolateral side represents the bloodstream. Each sample (100 µL) was immediately acidified with 1M HCl to a final concentration of 0.007 M and subsequently frozen at −20 °C until analysis by HPLC (according to the method described in Section 2.5). Each experiment was carried out on 3 individual wells. The transport efficiency (TE) percentage was calculated according to Equation (2):Transport efficiency (%) = (C/C0) × 100(2) where, C is the polyphenol concentration at the acceptor side over time and C0 is the initial concentration at the donor side. TE values were calculated for the nine polyphenols identified in the grape skin extract.
The apparent permeability coefficient (Papp) of the polyphenols in GSE was calculated for apical to basolateral side (AB) and basolateral to apical side (BA) flux studies according to Equation (3):Papp (cm/s) = (dQ/dt) × (VR/AC0)(3) where, dQ/dt is the permeability rate which means the steady-state linear rate of change of concentration (mg/L) per second (s) at the acceptor side; A is the surface area of the cell monolayer (1.12 cm^2). C0 is the initial concentration at the donor side (mg/L) at t = 0 s and VR is the volume of the solution of the acceptor side (mL).
The efflux ratio (ER) of the polyphenol was assessed by calculating the Equation (4):ER = Papp (BA)/Papp (AB)(4) where, Papp (BA) is the apparent permeability coefficient of the polyphenol from basolateral to apical side and Papp (AB) is the apparent permeability coefficient from apical to basolateral side. ER is a measure of the relative contributions of active and passive transport to bi-direction flux across the cell monolayer.

[1] = AB experiment, donor side, S1 (15 mg/mL GSE)
[2] = AB experiment, donor side, S2 (22 mg/mL GSE)
[3] = BA experiment, donor side, S1 (15 mg/mL GSE)
[4] = BA experiment, donor side, S2 (22 mg/mL GSE)
[5] = BA experiment, acceptor side, S1 (15 mg/mL GSE)
[6] = BA experiment, acceptor side, S2 (22 mg/mL GSE)

Row | SMILES | Apical Side 0 min [1] | Apical Side 75 min [1] | Apical Side 90 min [1] | Apical Side 115 min [1] | Apical Side 180 min [1] | Apical Side 0 min [2] | Apical Side 75 min [2] | Apical Side 90 min [2] | Apical Side 115 min [2] | Apical Side 180 min [2] | Basolateral Side 0 min [3] | Basolateral Side 75 min [3] | Basolateral Side 90 min [3] | Basolateral Side 115 min [3] | Basolateral Side 180 min [3] | Basolateral Side 0 min [4] | Basolateral Side 75 min [4] | Basolateral Side 90 min [4] | Basolateral Side 115 min [4] | Basolateral Side 180 min [4] | other results
1 | COc1cc(-c2[o+]c3cc(O)cc(O)c3cc2O[C@@H]2O[C@H](CO)[C@@H](O)[C@H](O)[C@H]2O)cc(O)c1O [Pet3G, petunidin-3-O-glucoside] | 1.8 ± 0.1 ^a mg/L | 1.4 ± 0.1 ^b mg/L | 1.2 ± 0.1 ^c mg/L | 1.02 ± 0.10 ^c,d mg/L | 0.9 ± 0.1 ^d mg/L | 4.4 ± 0.2 ^a mg/L | 4.0 ± 0.1 ^b mg/L | 3.7 ± 0.1 ^c mg/L | 3.33 ± 0.09 ^c mg/L | 3.16 ± 0.08 ^c mg/L | 4.3 ± 0.1 ^a mg/L | 4.0 ± 0.1 ^b mg/L | 3.8 ± 0.1 ^b,c mg/L | 3.65 ± 0.09 ^c,d mg/L | 3.49 ± 0.08 ^d mg/L | 3.1 ± 0.2 ^a mg/L | 3.0 ± 0.2 ^a mg/L | 2.9 ± 0.2 ^a mg/L | 2.7 ± 0.2 ^a mg/L | 2.7 ± 0.2 ^a mg/L | detection at the acceptor side of the Caco-2 cell monolayer: not detected
2 | O=c1c(O[C@@H]2O[C@H](CO)[C@@H](O)[C@H](O)[C@H]2O)c(-c2ccc(O)c(O)c2)oc2cc(O)cc(O)c12 [Q3G, quercetin-3-glucoside] | 0.23 ± 0.01 ^a mg/L | 0.18 ± 0.01 ^b mg/L | 0.14 ± 0.01 ^c mg/L | 0.10 ± 0.00 ^d mg/L | 0.08 ± 0.00 ^c mg/L | 0.61 ± 0.01 ^a mg/L | 0.52 ± 0.01 ^b mg/L | 0.47 ± 0.01 ^c mg/L | 0.41 ± 0.01 ^d mg/L | 0.37 ± 0.01 ^c mg/L | 0.28 ± 0.02 ^a mg/L | 0.24 ± 0.02 ^b mg/L | 0.21 ± 0.02 ^c mg/L | 0.18 ± 0.01 ^d mg/L | 0.15 ± 0.01 ^c mg/L | 0.41 ± 0.03 ^a mg/L | 0.38 ± 0.03 ^a,b mg/L | 0.36 ± 0.03 ^a,b,c mg/L | 0.34 ± 0.03 ^b,c mg/L | 0.32 ± 0.03 ^c mg/L | detection at the acceptor side (AB experiments, basolateral side): not detected; TE (%) transport efficiency (BA experiment, S1 (15 mg/mL GSE)): 4.1 ± 0.1%; TE (%) transport efficiency (BA experiment, S2 (22 mg/mL GSE)): 3.6 ± 0.1%; Apical Side 75 min [5]: 0.009 ± 0.001 ^b mg/L; Apical Side 90 min [5]: 0.010 ± 0.001 ^b,c mg/L; Apical Side 115 min [5]: 0.011 ± 0.001 ^c mg/L; Apical Side 180 min [5]: 0.011 ± 0.001 ^c mg/L; Apical Side 75 min [6]: 0.013 ± 0.001 ^b mg/L; Apical Side 90 min [6]: 0.013 ± 0.001 ^b,c mg/L; Apical Side 115 min [6]: 0.014 ± 0.001 ^c,d mg/L; Apical Side 180 min [6]: 0.015 ± 0.001 ^d mg/L; detection at the acceptor side (BA experiments, apical side): detected; also recorded: quantified
3 | COc1cc(C(=O)O)cc(OC)c1O [SA, syringic acid] | 0.70 ± 0.03 mg/L and 0.70 ± 0.03 ^a mg/L | 0.54 ± 0.03 ^b mg/L | 0.42 ± 0.03 ^c mg/L | 0.32 ± 0.03 ^d mg/L | 0.23 ± 0.03 mg/L and 0.23 ± 0.03 ^c mg/L | 1.48 ± 0.06 mg/L and 1.48 ± 0.06 ^a mg/L | 1.21 ± 0.04 ^b mg/L | 1.03 ± 0.03 ^c mg/L | 0.82 ± 0.02 ^d mg/L | 0.67 ± 0.03 mg/L and 0.67 ± 0.03 ^c mg/L | 0.84 ± 0.08 ^a mg/L | 0.72 ± 0.07 ^a,b mg/L | 0.63 ± 0.07 ^b,c mg/L | 0.53 ± 0.06 ^c,d mg/L | 0.44 ± 0.06 ^d mg/L | 1.1 ± 0.1 ^a mg/L | 1.10 ± 0.09 ^a,b mg/L | 1.03 ± 0.09 ^a,b,c mg/L | 0.96 ± 0.08 ^b,c mg/L | 0.90 ± 0.08 mg/L and 0.901 ± 0.08 ^c mg/L | detection at the acceptor side of the Caco-2 cell monolayer: not detected; reduction in concentration on the apical (donor) side (AB experiment, S1 (15 mg/mL GSE), 0 to 180 min): 67 ± 4%; reduction in concentration on the apical (donor) side (AB experiment, S2 (22 mg/mL GSE), 0 to 180 min): 55 ± 2%; reduction in concentration on the basolateral (donor) side (BA experiment, S2 (22 mg/mL GSE), 0 to 180 min): 23 ± 1%; detection at the acceptor side (BA experiments, apical side): detected
